Experimental data taken from patent US9598431B1, “Compounds useful for inhibiting ROR-gamma-t” (Eli Lilly and Company, priority 2015, dated 2017).
Like-named read-outs stand apart in the source and are kept apart here.

Tests used:
[1] = tested on: IL-17 secretion in PBMC; assay: PBMC IL-17 secretion ELISA; type: cell-based; conditions: anti-CD3/anti-CD28/IL-23 stimulated human PBMC, mean ± SEM, read-out: hPBMC IL-17 ELISA
Procedure: Following the incubation period the plates are spun at 200×g for five minutes. Supernatants are diluted 1:1 with equal volume 1% BSA/PBS and tested for IL-17 with a human IL-17 ELISA kit from R&D system (catalog #D317E) according to the protocol provided with the kit with one exception—the colorimetric substrate OPD (o-phenylenediamine dihydrochloride, Sigma Cat #P6912) is used instead of the substrate supplied in the kit. Absorbance at 492 nm is measured with the Envision multi-label plate reader. A492 values are converted to concentration of IL-17 based on the IL-17 standard curve as shown below:
pg/mL IL-17=EC50*[[(Top−Bottom)/(A492−Bottom)]−1](1/−Hill). IC50's for inhibition of IL-17 secretion is calculated based on converted values using a standard 4-parameter fit with maximum inhibition determined from the average values of wells with no added stimulants nor compounds and minimum inhibition from the average values of wells with stimulants alone and no added compound.

[2] = tested on: GPI induced arthritis in DBA/1 mice; assay: Glucose-6-phosphate isomerase (GPI) induced arthritis model; type: in vivo, mouse; conditions: male DBA/1 mice, 1000 mg/Kg orally once daily
Procedure: The GPI induced arthritis model is adapted from K. Iwanami et al Arthritis Rheumatism 58, 754-763, 2008 and D. Schubert et al. J Immunology 172, 4503-4509, 2004. Mice (8-9 week old male DBA/1 mice) (Harlan) are randomly assigned into treatment groups based on body weights collected on the day of immunization (day 0). On the day of immunization (day 0), a 1:1 (v:v) mixture of recombinant human GPI (diluted to 4 mg/mL in PBS, Gibco) and complete Freund's adjuvant (CFA, Sigma) is mixed on a high speed homogenizer (Omni) for 40 minutes in a cold room. A final concentration of 2 mg/mL GPI is achieved in the emulsion. Mice are injected at the base of the tail (2 sites of injection, subcutaneously, 100 μL each site) with the GPI emulsion. Test compounds are dosed orally starting on the same day as immunization (day 0). Starting on day 0, each paw is scored for severity of joint swelling based on a 0 to 3 scoring system (See K. Iwanami et al Arthritis Rheumatism 58, 754-763, 2008. The clinical score represents the total score of all 4 paws (maximum score=12). Clinical scores are assessed on days 0, 2, 4, 7, 8, 9, 10, 11, 12, 14, 16, 18, and 21.
The AUC is calculated by a trapezoid method for clinical score over time from the day of immunization (day 0) to day 21. Test p-values were derived from Student's t-test.

| SMILES | IC50 ([1]; 48 hours) | IC50 ([1]; Homo sapiens, PBMC, 48 h) | also measured |
| --- | --- | --- | --- |
| CCS(=O)(=O)c1ccc(CNC(=O)c2cc3c(s2)C2(CCN(C(C)c4cnc(C(F)(F)F)nc4)CC2)O[C@H](C)C3)nc1 (single isomer, unassigned; isomer 2) [Example 5, (5R′)—N-{[5-(Ethylsulfonyl)pyridine-2-yl]methyl}-5′-methyl-1-{1-[2-(trifluoromethyl)pyrimidin-5-yl]ethyl}-4′,5′-dihydrospiro[piperidine-4,7′thieno[2,3-C]pyran]-2′-carboxamide isomer 2] | 30.5 ± 29.3 nM | – | – |
| CCS(=O)(=O)c1ccc(CNC(=O)c2cc3c(s2)C2(CCN(C(C)c4cnc(C(F)(F)F)nc4)CC2)OC(C)C3)nc1 (centres unmarked) [Example 1, N-{[5-(Ethylsulfonyl)pyridine-2-yl]methyl}-5′-methyl-1-{1-[2-(trifluoromethyl)pyrimidin-5-yl]ethyl}-4′,5′-dihydrospiro[piperidine-4,7′thieno[2,3-C]pyran]-2′-carboxamide] | – | 77.3 nM | – |
| CCS(=O)(=O)c1ccc(CNC(=O)c2cc3c(s2)C2(CCN([C@@H](C)c4cnc(C(F)(F)F)nc4)CC2)O[C@@H](C)C3)nc1 [Example 2, (5S′)—N-{[5-(Ethylsulfonyl)pyridine-2-yl]methyl}-5′-methyl-1-{(1S)-1-[2-(trifluoromethyl)pyrimidin-5-yl]ethyl}-4′,5′-dihydrospiro[piperidine-4,7′thieno[2,3-C]pyran]-2′-carboxamide] | – | 33.7 ± 33.1 nM | – |
| CCS(=O)(=O)c1ccc(CNC(=O)c2cc3c(s2)C2(CCN(C(C)c4cnc(C(F)(F)F)nc4)CC2)O[C@H](C)C3)nc1 (single isomer, unassigned; isomer 1) [Example 4, (5R′)—N-{[5-(Ethylsulfonyl)pyridine-2-yl]methyl}-5′-methyl-1-{1-[2-(trifluoromethyl)pyrimidin-5-yl]ethyl}-4′,5′-dihydrospiro[piperidine-4,7′thieno[2,3-C]pyran]-2′-carboxamide isomer 1] | 106 nM | – | – |
| CCS(=O)(=O)c1ccc(CNC(=O)c2cc3c(s2)C2(CCN([C@H](C)c4cnc(C(F)(F)F)nc4)CC2)O[C@@H](C)C3)nc1 [Example 3, (5S′)—N-{[5-(Ethylsulfonyl)pyridine-2-yl]methyl}-5′-methyl-1-{(1R)-1-[2-(trifluoromethyl)pyrimidin-5-yl]ethyl}-4′,5′-dihydrospiro[piperidine-4,7′thieno[2,3-C]pyran]-2′-carboxamide] | – | 20 ± 12.6 nM | severity of paw swelling and mean clinical scores ([2]; compared to the vehicle group): reduces severity of paw swelling and maintains lower mean clinical scores; reduction in clinical score AUC ([2]; day 0 to day 21, compared to the vehicle group): 75%; Clinical Score AUC (mean ± SEM) ([2]; day 0 to day 21, n=8/group): 22.20 ± 8.68 |
